Experimental data as given in US20070185149A1, “Novel amido-substituted hydroxy-6-phenylphenanthridines and their use as pde4 inhibtors” (ALTANA PHARMA AG, priority 2004, published 2007).

Target: T1, PDE4B2 (Homo sapiens, UniProt Q07343)
T1 construct: made in house; host or cells: SF21 insect cells (baculovirus; virus prepared in SF9 cells)
Experiment: Inhibition of PDE4 activity: PDE4B2 [3H]cAMP SPA enzyme assay
Format: biochemical
Conditions: recombinant PDE4B2 (SF21 cell supernatant), modified SPA test, 0.5 μM cAMP, 15 min at 37° C.; read-out: Inhibition of the PDE4 activity, −log IC50 (converted)
Procedure: The PDE4B2 (GB no. M97515) was a gift of Prof. M. Conti (Stanford University, USA). It was amplified from the original plasmid (pCMV5) via PCR with primers Rb9 (5′-[…]-3′) and Rb10 (5′-[…]-3′) and cloned into the pCR-Bac vector (Invitrogen, Groningen, NL).
The recombinant baculovirus was prepared by means of homologous recombination in SF9 insect cells.
The expression plasmid was cotransfected with Bac-N-Blue (Invitrogen, Groningen, NL) or Baculo-Gold DNA (Pharmingen, Hamburg) using a standard protocol (Pharmingen, Hamburg). Wt virus-free recombinant virus supernatant was selected using plaque assay methods. After that, high-titre virus supernatant was prepared by amplifying 3 times. PDE was expressed in SF21 cells by infecting 2×10^6 cells/ml with an MOI (multiplicity of infection) between 1 and 10 in serum-free SF900 medium (Life Technologies, Paisley, UK). The cells were cultured at 28° C. for 48-72 hours, after which they were pelleted for 5-10 min at 1000 g and 4° C.
The SF21 insect cells were resuspended, at a concentration of approx. 10^7 cells/ml, in ice-cold (4° C.) homogenization buffer (20 mM Tris, pH 8.2, containing the following additions: 140 mM NaCl, 3.8 mM KCl, 1 mM EGTA, 1 mM MgCl2, 10 mM β-mercaptoethanol, 2 mM benzamidine, 0.4 mM Pefablock, 10 μM leupeptin, 10 μM pepstatin A, 5 μM trypsin inhibitor) and disrupted by ultrasonication. The homogenate was then centrifuged for 10 min at 1000×g and the supernatant was stored at −80° C. until subsequent use (see below). The protein content was determined by the Bradford method (BioRad, Munich) using BSA as the standard.
PDE4B2 activity is inhibited by the said compounds in a modified SPA (scintillation proximity assay) test, supplied by Amersham Biosciences (see procedural instructions “phosphodiesterase [3H]cAMP SPA enzyme assay, code TRKQ 7090”), carried out in 96-well microtitre plates (MTP's). The test volume is 100 μl and contains 20 mM Tris buffer (pH 7.4), 0.1 mg of BSA (bovine serum albumin)/ml, 5 mM Mg^2+, 0.5 μM cAMP (including about 50,000 cpm of [3H]cAMP), 1 μl of the respective substance dilution in DMSO and sufficient recombinant PDE (1000×g supernatant, see above) to ensure that 10-20% of the cAMP is converted under the said experimental conditions. […] After a preincubation of 5 min at 37° C., the reaction is started by adding the substrate (cAMP) and the assay is incubated for a further 15 min; after that, it is stopped by adding SPA beads (50 μl). In accordance with the manufacturer's instructions, the SPA beads had previously been resuspended in water, but were then diluted 1:3 (v/v) in water; the diluted solution also contains 3 mM IBMX to ensure a complete PDE activity stop. After the beads have been sedimented (>30 min), the MTP's are analyzed in commercially available […]. The corresponding IC50 values of the compounds for the inhibition of PDE activity are determined from the concentration-effect curves by means of non-linear regression.

T1 sequence (Q07343 1-564 isoform Q07343-2): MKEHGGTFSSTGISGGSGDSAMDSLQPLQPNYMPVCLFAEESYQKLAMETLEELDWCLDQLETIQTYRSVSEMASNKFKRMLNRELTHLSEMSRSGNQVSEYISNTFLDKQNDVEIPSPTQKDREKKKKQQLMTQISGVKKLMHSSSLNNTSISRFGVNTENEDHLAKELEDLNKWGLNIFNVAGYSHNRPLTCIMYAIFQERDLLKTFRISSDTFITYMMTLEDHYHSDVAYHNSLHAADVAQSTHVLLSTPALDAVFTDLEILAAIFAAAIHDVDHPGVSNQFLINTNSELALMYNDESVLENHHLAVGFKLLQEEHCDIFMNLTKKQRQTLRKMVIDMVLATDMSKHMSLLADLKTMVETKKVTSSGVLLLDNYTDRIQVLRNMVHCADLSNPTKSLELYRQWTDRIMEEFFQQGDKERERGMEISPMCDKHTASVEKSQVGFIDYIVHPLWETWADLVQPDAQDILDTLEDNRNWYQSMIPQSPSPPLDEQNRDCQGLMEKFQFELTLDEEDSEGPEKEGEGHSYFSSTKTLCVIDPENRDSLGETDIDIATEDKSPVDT

Which IC50 does the source give for `COc1cc2c(cc1OC(F)F)C1CC(O)CCC1N=C2c1ccc(C(=O)N2CCN(CC(=O)N3CCOCC3)CC2)cc1` (stereo not drawn) [Compound 32, 2-[4-(1-{4-[(2RS,4aRS,10bRS)-9-(1,1-Difluoro-methoxy)-2-hydroxy-8-methoxy-1,2,3,4,4a,10bhexahydro-phenanthridin-6-yl]-phenyl}-methanoyl)-piperazin-1-yl]-1-morpholin-4-yl-ethanone] here?
The IC50 was 0.955 to 8.71 nM.

Which IC50 does the source give for `COc1cc2c(cc1OC)C1CC(O)CCC1N=C2c1ccc(C(=O)N2CCN(c3ccncc3)CC2)cc1` (stereo not shown) [Compound 18] here?
The IC50 was 0.955 to 8.71 nM.

Which IC50 does the source give for `COc1cc2c(cc1OC(F)F)[C@H]1C[C@H](O)CC[C@H]1N=C2c1ccc(C(=O)N2CCN(CCN(C)C)CC2)cc1` (racemic) [Compound 35, 1-{4-[(2RS,4aRS,10bRS)-9-(1,1-Difluoro-methoxy)-2-hydroxy-8-methoxy-1,2,3,4,4a,10b-hexahydro-phenanthridin-6-yl]-phenyl}-1-[4-(2-dimethylamino-ethyl)-piperazin-1-yl]-methanone] here?
Its IC50 is 0.955 to 8.71 nM.

How did the IC50 turn out when `COCCN(CCOC)C(=O)c1ccc(C2=N[C@@H]3CC[C@@H](O)C[C@@H]3c3cc(OC(F)F)c(OC)cc32)cc1` (racemic) [Compound 26, 4-[(2RS,4aRS,10bRS)-9-(1,1-Difluoro-methoxy)-2-hydroxy-8-methoxy-1,2,3,4,4a,10b-hexahydro-phenanthridin-6-yl]-N,N-bis(2-methoxy-ethyl)-benzamide] was run?
Its IC50 is 0.955 to 8.71 nM.

How did the IC50 turn out when `COc1cc2c(cc1OC)[C@H]1C[C@H](O)CC[C@H]1N=C2c1ccc(C(=O)NNC(=O)N2CCOCC2)cc1` (racemic) [Compound 22, 4-((2RS,4aRS,10bRS)-2-Hydroxy-8,9-dimethoxy-1,2,3,4,4a,10b-hexahydro-phenanthridin-6-yl)benzoic acid N′-(1-morpholin-4-yl-methanoyl)-hydrazide] was run?
The IC50 was 0.955 to 8.71 nM.

Which IC50 does the source give for `COc1cc2c(cc1OC)[C@H]1C[C@H](O)CC[C@H]1N=C2c1ccc(C(=O)Nc2cnc3ccccc3c2)cc1` (racemic) [Compound 6, 4-((2RS,4aRS,10bRS)-2-Hydroxy-8,9-dimethoxy-1,2,3,4,4a,10b-hexahydro-phenanthridin-6-yl)-N-quinolin-3-yl-benzamide] here?
The IC50 was 0.955 to 8.71 nM.

For `CCN(CCOC)C(=O)c1ccc(C2=NC3CCC(O)CC3c3cc(OC)c(OC)cc32)cc1` (stereo not shown) [Compound 10], which IC50 is on record?
Its IC50 is 0.955 to 8.71 nM.

`COc1cc2c(cc1OC)C1CC(O)CCC1N=C2c1ccc(C(=O)NCCCN2CCOCC2)cc1` (stereo not shown) [Compound 2] was tested. Which IC50 did it give?
Its IC50 is 0.955 to 8.71 nM.

`COc1cc2c(cc1OC(F)F)[C@H]1C[C@H](O)CC[C@H]1N=C2c1ccc(C(=O)N(C)C)cc1` (racemic) [Compound 24, 4-[(2RS,4aRS,10bRS)-9-(1,1-Difluoro-methoxy)-2-hydroxy-8-methoxy-1,2,3,4,4a,10b-hexahydro-phenanthridin-6-yl]-N,N-dimethyl-benzamide] was tested. Which IC50 did it give?
Its IC50 is 0.955 to 8.71 nM.

How did the IC50 turn out when `COc1cc2c(cc1OC(F)F)[C@H]1C[C@H](O)CC[C@H]1N=C2c1ccc(C(=O)NCCN2CCOCC2)cc1` (racemic) [Compound 27, 4-[(2RS,4aRS,10bRS)-9-(1,1-Difluoro-methoxy)-2-hydroxy-8-methoxy-1,2,3,4,4a,10b-hexahydro-phenanthridin-6-yl]-N-(2-morpholin-4-yl-ethyl)-benzamide] was run?
Its IC50 is 0.955 to 8.71 nM.

How did the IC50 turn out when `COc1cc2c(cc1OC)C1CC(O)CCC1N=C2c1ccc(C(=O)NCCN2CCOCC2)cc1` (stereo not shown) [Compound 1] was run?
The IC50 was 0.955 to 8.71 nM.

How did the IC50 turn out when `COc1cc2c(cc1OC)[C@H]1C[C@H](O)CC[C@H]1N=C2c1ccc(C(=O)N2CCN(CCN3CCOCC3)CC2)cc1` (racemic) [Compound 9, 1-[4-((2RS,4aRS,10bRS)-2-Hydroxy-8,9-dimethoxy-1,2,3,4,4a,10b-hexahydro-phenanthridin-6-yl)-phenyl]-1-[4-(2-morpholin-4-yl-ethyl)-piperazin-1-yl]methanone] was run?
Its IC50 is 0.955 to 8.71 nM.

`COc1cc2c(cc1OC)C1CC(O)CCC1N=C2c1ccc(C(=O)NN2CCOCC2)cc1` (stereo not shown) [Compound 4] was tested. Which IC50 did it give?
The IC50 was 0.955 to 8.71 nM.
